Measurements from patent US20230085307A1, “PYRIDAZINONE COMPOUND AND HERBICIDE” (NISSAN CHEMICAL CORPORATION, priority 2019, published 2023).

How the values were obtained:
chickweed [1] = assay: Test Example 5: herbicidal effect by foliage application, plastic box (Table 20, symbol P); type: in vivo, common chickweed (Stellaria media); conditions: amount of applied herbicide 320 g/ha; foliage application after 14-day growth; evaluated three weeks after application
Outline: (§1)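 Plants sown in sterilized diluvial soil and grown 14 days in a greenhouse at 25° C to 30° C, then sprayed on the foliage with the compound's emulsion diluted in water to a predetermined herbicide amount. Injury to weeds and crops scored three weeks after application on a visual rating scale.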

velvetleaf [2] = assay: Test Example 4: herbicidal effect by soil treatment (Table 19, symbol M); type: in vivo, velvetleaf (Abutilon theophrasti); conditions: amount of applied herbicide 320 g/ha
Outline: (§2)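 Seeds were sown in sterilized diluvial soil and covered with about 1.5 cm of soil. An emulsion formulation diluted with water to a predetermined herbicide amount was sprayed evenly onto the soil surface. Plants grew in a greenhouse at 25° C. to 30° C., and the effect was scored three weeks after application using criteria from an earlier test.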

windgrass [3] = assay: Test Example 4: herbicidal effect by soil treatment (Table 19, symbol L); type: in vivo, windgrass (Apera spica-venti); conditions: amount of applied herbicide 320 g/ha
Outline: as §2

redroot pigweed [4] = assay: Test Example 4: herbicidal effect by soil treatment (Table 19, symbol N); type: in vivo, redroot pigweed (Amaranthus retroflexus); conditions: amount of applied herbicide 320 g/ha
Outline: as §2

southern crabgrass [5] = assay: Test Example 5: herbicidal effect by foliage application, plastic box (Table 20, symbol F); type: in vivo, southern crabgrass (Digitaria ciliaris)
Outline: as §1

blackgrass [6] = assay: Test Example 4: herbicidal effect by soil treatment (Table 19, symbol J); type: in vivo, blackgrass (Alopecurus myosuroides); conditions: amount of applied herbicide 320 g/ha
Outline: as §2

windgrass [7] = assay: Test Example 5: herbicidal effect by foliage application, plastic box (Table 20, symbol L); type: in vivo, windgrass (Apera spica-venti)
Outline: as §1

lambsquarters [8] = assay: Test Example 5: herbicidal effect by foliage application, plastic box (Table 20, symbol O); type: in vivo, lambsquarters (Chenopodium album)
Outline: as §1

persian speedwell [9] = assay: Test Example 5: herbicidal effect by foliage application, plastic box (Table 20, symbol R); type: in vivo, Persian speedwell (Veronica persica)
Outline: as §1

Chinese sprangletop = assay: Test Example 3: herbicidal effect by foliage application, Wagner pot (Table 18, symbol D); type: in vivo, chinese sprangletop (Leptochloa chinensis); conditions: 320 g/ha
Outline: (§3)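 Plants were sown in alluvial soil held under 0.1–0.5 cm standing water and grown 14 days in a greenhouse at 25–30 °C. An emulsifiable formulation, water-diluted to the set dose, was then sprayed onto the foliage, and effects were scored three weeks later using previously defined criteria.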

wild oat [10] = assay: Test Example 5: herbicidal effect by foliage application, plastic box (Table 20, symbol I); type: in vivo, wild oat (Avena fatua)
Outline: as §1

lambsquarters [11] = assay: Test Example 4: herbicidal effect by soil treatment (Table 19, symbol O); type: in vivo, lambsquarters (Chenopodium album); conditions: amount of applied herbicide 320 g/ha
Outline: as §2

Italian ryegrass [12] = assay: Test Example 5: herbicidal effect by foliage application, plastic box (Table 20, symbol K); type: in vivo, Italian ryegrass (Lolium multiflorum)
Outline: as §1

Italian ryegrass [13] = assay: Test Example 4: herbicidal effect by soil treatment (Table 19, symbol K); type: in vivo, Italian ryegrass (Lolium multiflorum); conditions: amount of applied herbicide 320 g/ha
Outline: as §2

rice flat sedge = assay: Test Example 3: herbicidal effect by foliage application, Wagner pot (Table 18, symbol E); type: in vivo, rice flat sedge (Cyperus iria); conditions: 320 g/ha
Outline: as §3

green foxtail [14] = assay: Test Example 4: herbicidal effect by soil treatment (Table 19, symbol G); type: in vivo, green foxtail (Setaria viridis); conditions: amount of applied herbicide 320 g/ha
Outline: as §2

blackgrass [15] = assay: Test Example 5: herbicidal effect by foliage application, plastic box (Table 20, symbol J); type: in vivo, blackgrass (Alopecurus myosuroides)
Outline: as §1

wild oat [16] = assay: Test Example 4: herbicidal effect by soil treatment (Table 19, symbol I); type: in vivo, wild oat (Avena fatua); conditions: amount of applied herbicide 320 g/ha
Outline: as §2

barnyard grass [17] = assay: Test Example 5: herbicidal effect by foliage application, plastic box (Table 20, symbol H); type: in vivo, barnyard grass (Echinochloa crus-galli)
Outline: as §1

southern crabgrass [18] = assay: Test Example 4: herbicidal effect by soil treatment (Table 19, symbol F); type: in vivo, southern crabgrass (Digitaria ciliaris); conditions: amount of applied herbicide 320 g/ha
Outline: as §2

redroot pigweed [19] = assay: Test Example 5: herbicidal effect by foliage application, plastic box (Table 20, symbol N); type: in vivo, redroot pigweed (Amaranthus retroflexus); conditions: amount of applied herbicide 320 g/ha; foliage application after 14-day growth; evaluated three weeks after application
Outline: as §1

barnyard grass [20] = assay: Test Example 3: herbicidal effect by foliage application, Wagner pot (Table 18, symbol H); type: in vivo, barnyard grass (Echinochloa crus-galli); conditions: 320 g/ha
Outline: as §3

barnyard grass [21] = assay: Test Example 4: herbicidal effect by soil treatment (Table 19, symbol H); type: in vivo, barnyard grass (Echinochloa crus-galli); conditions: amount of applied herbicide 320 g/ha
Outline: as §2

velvetleaf [22] = assay: Test Example 5: herbicidal effect by foliage application, plastic box (Table 20, symbol M); type: in vivo, velvetleaf (Abutilon theophrasti)
Outline: as §1

chickweed [23] = assay: Test Example 4: herbicidal effect by soil treatment (Table 19, symbol P); type: in vivo, common chickweed (Stellaria media); conditions: amount of applied herbicide 320 g/ha
Outline: as §2

persian speedwell [24] = assay: Test Example 4: herbicidal effect by soil treatment (Table 19, symbol R); type: in vivo, Persian speedwell (Veronica persica); conditions: amount of applied herbicide 320 g/ha
Outline: as §2

green foxtail [25] = assay: Test Example 5: herbicidal effect by foliage application, plastic box (Table 20, symbol G); type: in vivo, green foxtail (Setaria viridis)
Outline: as §1

Japanese bulrush = assay: Test Example 1: herbicidal activity, application before weed generation under submerged conditions (Table 16, symbol B); type: in vivo, Japanese bulrush (Schoenoplectus juncoides); conditions: amount of applied herbicide 320 g/ha
Description: (§4) [Test Example 1] Herbicidal Activity Test by Application before Weed Generation under Submerged Conditions After alluvial soil was placed into 1/10000 are of Wagner pot, water was poured and mixed to form a submerged condition having a water depth of 4 cm. Seeds of late watergrass, Japanese bulrush, and oval-leafed pondweed were sowed in a mixed manner in the aforementioned pot, and then 2.5 leaf stage rice plant seedlings were transplanted thereto. On the day of sowing seeds, the emulsion agent of the compound of the present invention prepared according to Formulation Example 2 was diluted with water so as to achieve a predetermined herbicide amount, and the diluted emulsion agent was applied to the surface of the water. The pot was placed in a greenhouse at 25° C. to 30° C. for growth of the plants. Three weeks after the herbicide application, the effect of the herbicide on each plant was evaluated according to the following criteria. Evaluation Criteria 5: Herbicidal rate of 90% or more (almost completely withered) 4: Herbicidal rate of 70% or more and less than 90% 3: Herbicidal rate of 40% or more and less than 70% 2: Herbicidal rate of 20% or more and less than 40% 1: Herbicidal rate of 5% or more and less than 20% 0: Herbicidal rate of 5% or less (almost no effect)

late watergrass = assay: Test Example 1: herbicidal activity, application before weed generation under submerged conditions (Table 16, symbol A); type: in vivo, late watergrass (Echinochloa oryzicola); conditions: amount of applied herbicide 320 g/ha
Description: as §4

[26] = amount of applied herbicide 320 g/ha, foliage application after 14-day growth, evaluated three weeks after application
[27] = foliage application, 320 g/ha, three weeks after application

## COc1cc(F)ccc1-c1sc2cc(Cl)c(Cl)cc2c1-c1c(O)c(C)nn(C)c1=O [5-051]
Chickweed [1]
  Herbicidal effect by foliage application, P: chickweed: 5 (Herbicidal rate of 90% or more (almost completely withered))
Velvetleaf [2]
  M: velvetleaf, herbicidal effect grade: 0 (Herbicidal rate of 5% or less (almost no effect))
Windgrass [3]
  L: windgrass, herbicidal effect grade: 0 (Herbicidal rate of 5% or less (almost no effect))
Redroot pigweed [4]
  N: redroot pigweed, herbicidal effect grade: 1 (Herbicidal rate of 5% or more and less than 20%)
Southern crabgrass [5]; [26]
  Herbicidal effect by foliage application, F: southern crabgrass: 2 (Herbicidal rate of 20% or more and less than 40%)
Blackgrass [6]
  J: blackgrass, herbicidal effect grade: 0 (Herbicidal rate of 5% or less (almost no effect))
Windgrass [7]; [26]
  Herbicidal effect by foliage application, L: windgrass: 4 (Herbicidal rate of 70% or more and less than 90%)
Lambsquarters [8]; [26]
  Herbicidal effect by foliage application, O: lambsquarters: 3 (Herbicidal rate of 40% or more and less than 70%)
Persian speedwell [9]; [26]
  Herbicidal effect by foliage application, R: persian speedwell: 3 (Herbicidal rate of 40% or more and less than 70%)
Chinese sprangletop
  herbicidal effect on Chinese sprangletop (D): 3 (Herbicidal rate of 40% or more and less than 70%)
Wild oat [10]; [26]
  Herbicidal effect by foliage application, I: wild oat: 0 (Herbicidal rate of 5% or less (almost no effect))
Lambsquarters [11]
  O: lambsquarters, herbicidal effect grade: 4 (Herbicidal rate of 70% or more and less than 90%)
Italian ryegrass [12]; [26]
  Herbicidal effect by foliage application, K: Italian ryegrass: 0 (Herbicidal rate of 5% or less (almost no effect))
Italian ryegrass [13]
  K: Italian ryegrass, herbicidal effect grade: 0 (Herbicidal rate of 5% or less (almost no effect))
Rice flat sedge
  herbicidal effect on rice flat sedge (E): 3 (Herbicidal rate of 40% or more and less than 70%)
Green foxtail [14]
  G: green foxtail, herbicidal effect grade: 2 (Herbicidal rate of 20% or more and less than 40%)
Blackgrass [15]; [26]
  Herbicidal effect by foliage application, J: blackgrass: 5 (Herbicidal rate of 90% or more (almost completely withered))
Wild oat [16]
  I: wild oat, herbicidal effect grade: 0 (Herbicidal rate of 5% or less (almost no effect))
Barnyard grass [17]; [26]
  Herbicidal effect by foliage application, H: barnyard grass: 3 (Herbicidal rate of 40% or more and less than 70%)
Southern crabgrass [18]
  F: southern crabgrass, herbicidal effect grade: 0 (Herbicidal rate of 5% or less (almost no effect))
Redroot pigweed [19]
  Herbicidal effect by foliage application, N: redroot pigweed: 3 (Herbicidal rate of 40% or more and less than 70%)
Barnyard grass [20]
  herbicidal effect on barnyard grass (H): 4 (Herbicidal rate of 70% or more and less than 90%)
Barnyard grass [21]
  H: barnyard grass, herbicidal effect grade: 0 (Herbicidal rate of 5% or less (almost no effect))
Velvetleaf [22]; [26]
  Herbicidal effect by foliage application, M: velvetleaf: 5 (Herbicidal rate of 90% or more (almost completely withered))
Chickweed [23]
  P: chickweed, herbicidal effect grade: 1 (Herbicidal rate of 5% or more and less than 20%)
Persian speedwell [24]
  R: persian speedwell, herbicidal effect grade: 0 (Herbicidal rate of 5% or less (almost no effect))
Green foxtail [25]; [26]
  Herbicidal effect by foliage application, G: green foxtail: 4 (Herbicidal rate of 70% or more and less than 90%)

## COc1cc2sc(-c3ccccc3OC)c(-c3c(O)c(C)nn(C)c3=O)c2cc1Cl [5-068]
Southern crabgrass [5]; [27]
  herbicidal effect on southern crabgrass (F): 1 (Herbicidal rate of 5% or more and less than 20%)
Japanese bulrush
  Herbicidal effect, B: Japanese bulrush: 5 (Herbicidal rate of 90% or more (almost completely withered))
Windgrass [7]; [27]
  herbicidal effect on windgrass (L): 0 (Herbicidal rate of 5% or less (almost no effect))
Lambsquarters [8]; [27]
  herbicidal effect on lambsquarters (O): 3 (Herbicidal rate of 40% or more and less than 70%)
Persian speedwell [9]; [27]
  herbicidal effect on persian speedwell (R): 2 (Herbicidal rate of 20% or more and less than 40%)
Chinese sprangletop
  herbicidal effect on Chinese sprangletop (D): 0 (Herbicidal rate of 5% or less (almost no effect))
Wild oat [10]; [27]
  herbicidal effect on wild oat (I): 0 (Herbicidal rate of 5% or less (almost no effect))
Italian ryegrass [12]; [27]
  herbicidal effect on Italian ryegrass (K): 0 (Herbicidal rate of 5% or less (almost no effect))
Rice flat sedge
  herbicidal effect on rice flat sedge (E): 1 (Herbicidal rate of 5% or more and less than 20%)
Blackgrass [15]; [27]
  herbicidal effect on blackgrass (J): 0 (Herbicidal rate of 5% or less (almost no effect))
Barnyard grass [17]; [27]
  herbicidal effect on barnyard grass (H): 3 (Herbicidal rate of 40% or more and less than 70%)
Late watergrass
  Herbicidal effect, A: late watergrass: 0 (Herbicidal rate of 5% or less (almost no effect))
Barnyard grass [20]
  herbicidal effect on barnyard grass (H): 4 (Herbicidal rate of 70% or more and less than 90%)
Velvetleaf [22]; [27]
  herbicidal effect on velvetleaf (M): 1 (Herbicidal rate of 5% or more and less than 20%)
Green foxtail [25]; [27]
  herbicidal effect on green foxtail (G): 3 (Herbicidal rate of 40% or more and less than 70%)
